# Results as given in patent US11052154B2, “Ras protein degradation inducing molecule and pharmaceutical composition” (Tokyo University of Science Foundation, priority 2016, dated 2021).
# Target: T1, wild-type K-Ras protein (Homo sapiens, UniProt P01116)
# T1 construct: expressed in transfected cells; host or cells: HeLa
# Assay: Degradation (knockdown) of wild-type K-Ras protein forcibly expressed in HeLa cells, FACS analysis
# Assay type: cell-based
# Conditions: FIG. 1
# Method: In Example 2, degradation (knockdown) of a wild-type K-Ras protein forcibly expressed in HeLa cells (human cervical cancer cells) through TUS-007 was evaluated by FACS analysis. […] The full-length cDNA clone (Accession No. AK292510) of a human K-ras gene was purchased from Independent Administrative Institution, the National Institute of Technology and Evaluation. PCR amplification was performed using KOD-Plus-Neo (TOYOBO CO., LTD) as a PCR enzyme. The plasmid was introduced into HeLa cells to transiently overexpress a wild-type K-Ras protein (specifically, a fusion protein of a wild-type K-Ras protein and GFP via a HA tag) or a DsRed protein for comparison in the […] (Wako Pure Chemical Industries, Ltd.) as a transfection reagent was used to introduce the plasmid into HeLa cells by a routine procedure. […] Culture was performed for 40 hours after introduction of the plasmid, and then TUS-007 was added to HeLa cells as follows. […] A BD FACSCantoTM II (BD Biosciences) was used for flow cytometry, and the expression levels of GFP and the DsRed protein in the cells were quantified. […] The GFP/DsRed ratio per cell was computed using an analysis software FlowJoTM (TOMY Digital Biology Co., Ltd.), and degradation (knockdown) of the wild-type K-Ras protein by TUS-007 was determined from a shift in a graph.
# T1 sequence (P01116 1-188 isoform P01116-2): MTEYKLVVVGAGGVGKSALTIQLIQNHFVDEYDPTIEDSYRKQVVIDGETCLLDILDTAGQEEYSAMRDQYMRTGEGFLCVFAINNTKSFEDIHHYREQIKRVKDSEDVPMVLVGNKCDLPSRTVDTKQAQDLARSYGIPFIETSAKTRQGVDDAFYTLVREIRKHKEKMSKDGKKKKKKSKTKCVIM
compound,measurement,setting,value
CCC(C)[C@H](NC(=O)CCCCCCNC(=O)[C@H](CC(C)C)NC(=O)CNC(=O)c1cc(Cl)ccc1Cl)C(=O)Nc1ccc2[nH]c(Cc3c[nH]c4ccccc34)nc2c1 (stereo in doubt) [TUS-007],degradation (knockdown) of the wild-type K-Ras protein (shift of GFP/DsRed ratio graph),"24 hours after addition, vs control (DMSO)",degradation of the wild-type K-Ras protein was induced
same,degradation of the wild-type K-Ras protein when both TUS-007 and MLN2238 were added,"MLN2238 co-added, compared with TUS-007 alone",degradation of the wild-type K-Ras protein was inhibited
